{"source": "patent US20250237642A1", "about": "(priority 2022, published 2025)", "key": {"HBV wild-type": {"molecular_target": "HBV wild-type (Hepatitis B virus genotype D subtype ayw, UniProt P03146)"}, "T109 mutant": {"molecular_target": "T109 mutant (Hepatitis B virus genotype D subtype ayw, UniProt P03146, T109I)"}, "HBV core protein mutants [1]": {"molecular_target": "HBV core protein mutants (Hepatitis B virus genotype D subtype ayw, UniProt P03146, F23Y)", "conditions": "cited from earlier work"}, "HBV core protein mutants [2]": {"molecular_target": "HBV core protein mutants (Hepatitis B virus genotype D subtype ayw, UniProt P03146, L30F)", "conditions": "cited from earlier work"}, "HBV core protein mutants [3]": {"molecular_target": "HBV core protein mutants (Hepatitis B virus genotype D subtype ayw, UniProt P03146, F110I)", "conditions": "cited from earlier work"}, "HBV core protein mutants [4]": {"molecular_target": "HBV core protein mutants (Hepatitis B virus genotype D subtype ayw, UniProt P03146, T33Q)", "conditions": "cited from earlier work"}, "HBV core protein mutants [5]": {"molecular_target": "HBV core protein mutants (Hepatitis B virus genotype D subtype ayw, UniProt P03146, T109I)", "conditions": "cited from earlier work"}, "HIV-RT Q151M mutation [6]": {"molecular_target": "T1, HIV-RT Q151M mutation (Human immunodeficiency virus type 1 group M subtype B, UniProt P03366, Q750M)", "conditions": "cited from earlier work"}, "HIV-RT M184V and M184I": {"system": "HIV-RT M184V and M184I", "conditions": "cited from earlier work"}, "HIV-RT Q151M mutation [7]": {"molecular_target": "T1, HIV-RT Q151M mutation", "conditions": "cited from earlier work", "remark": "listed apart in the source"}, "HBV core protein mutants [8]": {"molecular_target": "HBV core protein mutants (Hepatitis B virus genotype D subtype ayw, UniProt P03146, L140I)", "conditions": "cited from earlier work"}, "HBV core protein mutants [9]": {"molecular_target": "HBV core protein mutants (Hepatitis B virus genotype D subtype ayw, UniProt P03146, T128I)", "conditions": "cited from earlier work"}}, "data": [{"smiles": "C#CCNC(=O)C(=O)c1c(C)c(C(=O)Nc2ccc(F)c(F)c2)n(C)c1C", "note": "[GLP-26]", "values": [{"measurement": "Effect on HBeAg production (sensitive / resistant)", "setting": "HBV wild-type", "result": "Sensitive"}, {"measurement": "Reduction of cccDNA", "setting": "T109 mutant", "result": "susceptible"}]}, {"smiles": "COC(=O)C1=C(C)NC(c2ncc(F)cc2F)=N[C@H]1c1ccc(F)cc1Cl", "note": "[BAY41-4109]", "values": [{"measurement": "Reported resistance mutation", "setting": "HBV core protein mutants [1]", "result": "resistance mutations"}, {"measurement": "Reported resistance mutation", "setting": "HBV core protein mutants [2]", "result": "resistance mutations"}, {"measurement": "Reported resistance mutation", "setting": "HBV core protein mutants [3]", "result": "reported"}, {"measurement": "Reported resistance mutation", "setting": "HBV core protein mutants [4]", "result": "resistance mutation"}]}, {"smiles": "CCOC(=O)C1=C(CN2CCOCC2)NC(c2nccs2)=NC1c1ccc(F)cc1Br", "note": "(stereo not drawn) [GLS4]", "values": [{"measurement": "Reported resistance mutation", "setting": "HBV core protein mutants [5]", "result": "resistant"}]}, {"smiles": "Nc1nc(=O)n([C@@H]2CS[C@H](CO)O2)cc1F", "note": "[(-)-FTC, emtricitabine]", "values": [{"measurement": "fold reduction of EC50", "setting": "HIV-RT Q151M mutation [6]", "result": 2, "unit": "fold"}, {"measurement": "fold resistance", "setting": "HIV-RT M184V and M184I", "result": "500-1000 fold"}, {"measurement": "Enzymatic sensitivity", "setting": "HIV-RT Q151M mutation [7]", "result": "remains sensitive"}]}, {"smiles": "C[C@H](NS(=O)(=O)c1cc(C(=O)Nc2ccc(F)c(C#N)c2)n(C)c1)C(F)(F)F", "note": "[JNJ-6379]", "values": [{"measurement": "Reported resistance mutation", "setting": "HBV core protein mutants [8]", "result": "reported"}, {"measurement": "Reported resistance mutation", "setting": "HBV core protein mutants [1]", "result": "resistance mutations"}, {"measurement": "Reported resistance mutation", "setting": "HBV core protein mutants [2]", "result": "resistance mutations"}, {"measurement": "Reported resistance mutation", "setting": "HBV core protein mutants [9]", "result": "reported"}, {"measurement": "Reported resistance mutation", "setting": "HBV core protein mutants [3]", "result": "reported"}]}]}
